# Laboratory results as given in PubChem BioAssay (NCI).
#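 A five-concentration, 48-hour dose response in 96-well plates underlies each endpoint, interpolated linearly between surrounding concentrations. TGI is the concentration that stops growth completely.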
# What was measured:
# Experiment in all cases: inhibition of tumour cell growth, NCI panel, 48 h
# NCI-H23 lung = tested on: NCI-H23 lung
# SNB-75 CNS = tested on: SNB-75 CNS
# K-562 leukemia = tested on: K-562 leukemia
# SK-MEL-5 melanoma = tested on: SK-MEL-5 melanoma
# RPMI-8226 leukemia = tested on: RPMI-8226 leukemia
# EKVX NSCLC = tested on: EKVX NSCLC
# TK-10 renal = tested on: TK-10 renal
# SF-295 CNS = tested on: SF-295 CNS
# HOP-62 NSCLC = tested on: HOP-62 NSCLC
# MOLT-4 leukemia = tested on: MOLT-4 leukemia
Structure (SMILES),TGI (NCI-H23 lung) [µM],TGI (SNB-75 CNS) [µM],TGI (K-562 leukemia) [µM],TGI (SK-MEL-5 melanoma) [µM],TGI (RPMI-8226 leukemia) [µM],TGI (EKVX NSCLC) [µM],TGI (TK-10 renal) [µM],TGI (SF-295 CNS) [µM],TGI (HOP-62 NSCLC) [µM],TGI (MOLT-4 leukemia) [µM]
Cc1ccc(C)c(C(=O)CC2OC(O)C(Cl)C2Cl)c1 (stereo not given),> 100,> 100,> 100,> 100,> 100,> 100,> 100,> 100,> 100,> 100
CC(=O)OC/C=C/Cn1nc(Br)c(=O)[nH]c1=O,> 100,> 100,> 100,> 100,> 100,> 100,> 100,> 100,> 100,> 100
CCc1nc2cc(F)ccc2[nH]c1=O,> 100,> 100,> 100,> 100,> 100,> 100,> 100,> 100,> 100,> 100
COc1cc(CC2C(=O)OCC2Cc2ccc(OC)c(OC)c2)ccc1O (stereo not given),> 100,> 100,> 100,> 100,> 100,> 100,> 100,> 100,> 100,> 31.7
Nc1nc2c(ccc3ccccc32)[nH]1,> 10,> 10,> 10,> 10,> 10,> 10,> 10,> 10,> 10,> 10
COc1ccc(OC)c2c(Nc3ccc(S(=O)(=O)O)c4cc(S(=O)(=O)O)cc(S(=O)(=O)O)c34)cc(C)nc12,> 100,> 100,> 100,> 100,> 100,> 100,> 100,> 100,> 100,> 100
O=C(CCc1ccccc1)NCCc1ccc(O)c(O)c1,> 100,> 100,22.4,> 50.6,59.4,> 100,> 100,> 94.9,97.3,> 89.4
N=c1sc(N2CCOCC2)nn1CC(=O)c1ccccc1,> 100,> 100,> 100,> 100,> 100,> 100,> 100,> 100,> 100,> 100
CC(=O)Oc1cc(OC(C)=O)c2c(c1C)CC[C@@H]1[C@@H]2CC[C@]2(C)[C@@H](OC(C)=O)CC[C@@H]12,38.8,44,89.2,30.8,31.3,28,35,38,36,36.1
NS(=O)(=O)C1CCCCC1C(=O)NNC(=O)C(=O)Nc1nc(=S)[nH][nH]1 (stereo not given),> 100,> 100,> 100,> 100,> 100,> 100,> 100,> 100,> 100,> 100
O=C1Cc2c(-c3ccccc3)cc(-c3ccc(Cl)cc3)nc2-c2ccccc2N1,17.8,8.77,> 100,17,> 100,> 43.6,14.3,23.7,12.9,> 84.8
Cc1nnc(N)s/c1=N/O,> 100,> 100,> 100,> 100,> 100,> 100,> 100,> 100,> 100,> 100
C(/Cc1ccc2c(c1)OCO2)=N\NC1=NCCCCN1,> 100,> 100,> 100,58.2,> 100,> 100,> 100,> 100,> 100,> 100
CCOP(=O)(OCC)/C(C#N)=C(\C)c1ccco1,> 10,> 10,> 10,> 10,> 10,> 10,> 10,> 10,> 10,> 10
O=C1c2sccc2C(=O)c2c(CO)csc21,5.95,15.1,> 100,2.2,> 100,26.6,23,8.04,25.5,> 52.9
CC(=O)Oc1c(OC(C)C)cc(=O)n2ccsc12,> 100,> 100,> 100,> 100,> 100,> 100,> 100,> 100,> 100,> 100
